Source: patent US20150290200A1, “INTRACELLULAR KINASE INHIBITORS” (Pharmacyclics Inc., priority 2006, published 2015)
Where two headings read alike, the source gives them in different places.

How the values were obtained:
Assay type in all cases: biochemical
ITK kinase domain = molecular target: T1, ITK kinase domain (Homo sapiens, UniProt Q08881); test: In vitro kinase assay (HITHUNTER enzyme fragment complementation), ITK; settings: read-out: IC50 ITK
T1 construct: N-terminally His-tagged ITK kinase domain (amino acids 352-617); His (N); made in house
T1 sequence (Q08881 352-617): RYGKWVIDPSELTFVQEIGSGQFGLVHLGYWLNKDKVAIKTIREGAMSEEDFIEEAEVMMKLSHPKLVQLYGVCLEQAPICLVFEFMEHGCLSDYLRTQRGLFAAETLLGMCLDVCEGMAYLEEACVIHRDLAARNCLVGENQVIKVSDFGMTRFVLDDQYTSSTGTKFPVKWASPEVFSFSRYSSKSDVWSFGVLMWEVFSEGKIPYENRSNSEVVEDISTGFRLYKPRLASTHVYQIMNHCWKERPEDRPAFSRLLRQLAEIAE
Description: Compounds were screened using the HITHUNTER™ enzyme fragment complementation method (Discoverx). Briefly, a recombinantly produced, N-terminally His-tagged ITK kinase domain (amino acids 352-617) was incubated with various concentrations of individual compounds. ATP and substrate were added, and the kinase reaction was allowed to proceed for 2-16 hours. Commercially available detection reagents were added and allowed to react for 2-4 hours. The reaction was evaluated by luminescence. Initial results were confirmed using full-length recombinant ITK protein.
In order to confirm the mechanism by which compounds depicted herein interact with the kinase domain of Tec and EGFR kinases, we created a point mutant of the ITK kinase domain, whereby the key amino acid, namely C442 was mutated to alanine. The protein was expressed in a commercial baculovirus expression system using the manufacturer's general protocol (Invitrogen, pBlueBac). Protein was expressed and purified using standard techniques. […] While the activity of WT-ITK was inhibited by compounds depicted in this application, the same compounds had no activity towards the C442A mutant kinase domain.

BTK kinase domain = molecular target: T2, BTK kinase domain (Homo sapiens, UniProt Q06187); test: In vitro kinase assay (HITHUNTER), BTK
T2 construct: The kinase domains of BTK, LCK and ERK were expressed as recombinant purified proteins; made in house
Excerpt: (§1) Similarly, commercially available reagents such as HITHUNTER™ were used to evaluate the effect of compounds on the activity of additional kinases. The kinase domains of BTK, LCK and ERK were expressed as recombinant purified proteins were used for these studies.

LCK kinase domain = molecular target: T3, LCK kinase domain (Homo sapiens, UniProt P06239); test: In vitro kinase assay (HITHUNTER), LCK; settings: Table 2
T3 construct: The kinase domains of BTK, LCK and ERK were expressed as recombinant purified proteins; made in house
Excerpt: as §1

T3 sequence (P06239 245-498 limits assumed, species assumed): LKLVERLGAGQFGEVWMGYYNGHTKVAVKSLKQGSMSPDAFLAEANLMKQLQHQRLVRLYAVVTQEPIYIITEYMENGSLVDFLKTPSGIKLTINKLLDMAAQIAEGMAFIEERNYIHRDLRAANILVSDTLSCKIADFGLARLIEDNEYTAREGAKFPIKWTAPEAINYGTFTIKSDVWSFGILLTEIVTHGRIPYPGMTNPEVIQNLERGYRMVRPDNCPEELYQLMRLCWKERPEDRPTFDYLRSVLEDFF
T2 sequence (Q06187 402-655 limits assumed): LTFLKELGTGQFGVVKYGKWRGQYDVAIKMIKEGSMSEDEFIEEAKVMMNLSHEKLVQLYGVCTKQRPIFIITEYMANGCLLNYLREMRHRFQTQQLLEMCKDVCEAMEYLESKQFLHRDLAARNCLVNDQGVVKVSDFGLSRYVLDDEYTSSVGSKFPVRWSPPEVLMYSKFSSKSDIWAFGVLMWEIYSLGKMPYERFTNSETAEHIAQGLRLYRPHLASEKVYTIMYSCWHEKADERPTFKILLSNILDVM

| SMILES | IC50 (ITK kinase domain; Table 2) [µM] | IC50 (BTK kinase domain; Table 2) [µM] | IC50 (LCK kinase domain) [µM] | further results |
| --- | --- | --- | --- | --- |
| COc1cc(OC)cc(C(=O)CCN2CCOCC2)c1 | 0.005 | 0.425 | 12.6 | – |
| O=C(CCN1CCOCC1)c1ccc(Cl)c(Cl)c1 | 0.013 | 0.102 | 34.1 | – |
| O=C(CCN1CCOCC1)c1cccc(Br)c1 | 0.025 | 0.365 | – | IC50 LCK (LCK kinase domain): NO IC50 |
| N#Cc1cccc(C(=O)CCN2CCOCC2)c1 | 0.029 | 0.643 | 413 | – |
| COc1cccc(C(=O)CCN2CCOCC2)c1 | 0.035 | 0.942 | 16.4 | – |
| O=C(CCN1CCOCC1)c1cccc(C(F)(F)F)c1 | 0.043 | 0.656 | 27.1 | – |
| O=C(CCN1CCOCC1)c1ccc(F)cc1F | 0.056 | 0.865 | – | IC50 LCK (LCK kinase domain): NO IC50 |
| CC(=O)Nc1cccc(C(=O)CCN2CCOCC2)c1 | 0.065 | 1.24 | 18.4 | – |
| N#Cc1ccc(C(=O)CCN2CCOCC2)cc1 | 0.072 | 0.737 | – | IC50 LCK (LCK kinase domain): NO IC50 |
| O=C(CCN1CCOCC1)c1cccc2ccccc12 | 0.065 | 0.398 | 23.2 | – |
| O=C(CCN1CCOCC1)c1ccc(Oc2ccccc2)cc1 | 0.091 | 0.0941 | 18.5 | – |
| O=C(CCN1CCOCC1)c1cccc(Cl)c1 | 0.077 | 0.775 | 47.6 | – |
| O=C(CCN1CCOCC1)c1ccc2c(c1)OCCO2 | 0.096 | 1.54 | 20.8 | – |
| O=C(CCN1CCOCC1)c1ccc(Br)cc1 | 0.104 | 0.232 | – | IC50 LCK (LCK kinase domain): NO IC50 |
| O=C(CCN1CCOCC1)c1cccc(OC(F)(F)F)c1 | 0.148 | 0.774 | 28 | – |
| Cc1ccc(C(=O)CCN2CCOCC2)cc1 | 0.18 | 1.52 | 164 | – |
| CN(C)c1cccc(C(=O)CCN2CCOCC2)c1 | 0.186 | 3.68 | 20.6 | – |
| O=C(CCN1CCOCC1)c1ccc(C(F)(F)F)cc1 | 0.199 | 0.474 | – | IC50 LCK (LCK kinase domain): NO IC50 |
| O=C(CCN1CCOCC1)c1cccc(Oc2ccccc2)c1 | 0.207 | 0.0941 | 18.5 | – |

| SMILES | IC50 (ITK kinase domain; Table 2) [µM] | IC50 (BTK kinase domain; Table 2) [µM] | IC50 (LCK kinase domain) [µM] | further results |
| --- | --- | --- | --- | --- |
| O=C(CCN1CCOCC1)c1ccc(F)c(F)c1 | 0.208 | 2.89 | 33.1 | – |
| O=C(CCN1CCOCC1)c1c(Cl)cccc1Cl | 0.207 | 0.0807 | – | IC50 LCK (LCK kinase domain): NO IC50 |
| O=C(CCN1CCOCC1)c1ccc(OC(F)(F)F)cc1 | 0.219 | 1.31 | – | IC50 LCK (LCK kinase domain): NO IC50 |
| Cc1ccc(C(=O)CCN2CCOCC2)cc1C | 0.223 | 1.48 | 21.2 | – |
| O=C(CCN1CCOCC1)c1ccc(Cl)cc1 | 0.29 | 0.682 | 25.9 | – |
| O=C(CCN1CCOCC1)c1ccccc1Br | 0.305 | 0.741 | – | IC50 LCK (LCK kinase domain): NO IC50 |
| COc1ccc(C(=O)CCN2CCOCC2)c(OC)c1 | 0.345 | 3.14 | 21.1 | – |
| O=C(CCN1CCOCC1)c1cccc(F)c1 | 0.381 | 3.03 | 32.6 | – |
| Cc1ccc(C(=O)CCN2CCOCC2)c(C)c1 | 0.385 | 1.48 | 25.3 | – |
| O=C(CCN1CCOCC1)c1ccc2c(c1)OCO2 | 0.385 | 3.92 | 23.3 | – |
| CS(=O)(=O)c1ccc(C(=O)CCN2CCOCC2)cc1 | 0.385 | 0.753 | 23.9 | – |
| O=C(CCN1CCOCC1)c1ccc(F)cc1C(F)(F)F | 0.468 | 1.22 | – | IC50 LCK (LCK kinase domain): NO IC50 |
| Cc1cccc(C(=O)CCN2CCOCC2)c1 | 0.56 | 3.07 | 24.4 | – |
| NCC1CCN(CCC(=O)c2ccc3ccccc3c2)CC1 | – | – | – | IC50 (ITK kinase domain; Table 5): 0.086 µM; IC50 (BTK kinase domain; Table 5): 0.084 µM |
| O=C(CCN1CCC(C(=O)c2ccncc2)CC1)c1ccc2ccccc2c1 | – | – | – | IC50 (ITK kinase domain; Table 5): 0.284 µM; IC50 (BTK kinase domain; Table 5): 0.486 µM |
| O=C(CCN1CCC(CNC(=O)C(F)(F)F)CC1)c1ccc2ccccc2c1 | – | – | – | IC50 (ITK kinase domain; Table 5): 0.217 µM; IC50 (BTK kinase domain; Table 5): 0.266 µM |
| O=C(CCNCC1CCNCC1)c1ccc2ccccc2c1 | – | – | – | IC50 (ITK kinase domain; Table 5): 0.163 µM; IC50 (BTK kinase domain; Table 5): 0.1 µM |
| O=C(CCNCC1CCN(C(=O)c2ccncc2)CC1)c1ccc2ccccc2c1 | – | – | – | IC50 (ITK kinase domain; Table 5): 0.036 µM; IC50 (BTK kinase domain; Table 5): 0.004 µM |
| CN(C)C(=O)N1CCC(CNCCC(=O)c2ccc3ccccc3c2)CC1 | – | – | – | IC50 (ITK kinase domain; Table 5): 0.737 µM; IC50 (BTK kinase domain; Table 5): 0.373 µM |

| SMILES | IC50 (ITK kinase domain; Table 2) [µM] | IC50 (BTK kinase domain; Table 2) [µM] | IC50 (LCK kinase domain) [µM] | further results |
| --- | --- | --- | --- | --- |
| O=C(CCN1CCOCC1)c1ccccc1Cl [drawing 133] | – | – | 28.1 | – |
| O=C(CCN1CCOCC1)c1ccccc1Cl [drawing 149] | – | – | – | IC50 LCK (LCK kinase domain): NO IC50 |
| O=C1COc2ccc(C(=O)CCN3CCOCC3)cc2N1 [drawing 166] | – | – | – | IC50 (ITK kinase domain; Table 3, Compound): 0.0059 µM; IC50 (BTK kinase domain; Table 3, Compound): 0.781 µM |
| O=C(CCN1CCOCC1)c1ccc2ccccc2c1 [drawing 167] | – | – | – | IC50 (ITK kinase domain; Table 3, naphthyl analog): 0.02 µM; IC50 (BTK kinase domain; Table 3, naphthyl analog): 0.0395 µM |
| COc1cc2c(cc1OC)CN(CCC(=O)c1ccc3c(c1)NC(=O)CO3)CC2 [drawing 168] | – | – | – | IC50 (ITK kinase domain; Table 3, Compound): 0.03 µM; IC50 (BTK kinase domain; Table 3, Compound): 0.276 µM |
| COc1cc2c(cc1OC)CN(CCC(=O)c1ccc3ccccc3c1)CC2 [drawing 169] | – | – | – | IC50 (ITK kinase domain; Table 3, naphthyl analog): 0.007 µM; IC50 (BTK kinase domain; Table 3, naphthyl analog): 0.0128 µM |
| CN(C)C1CCN(CCC(=O)c2ccc3ccccc3c2)C1 (stereo not shown) [drawing 171] | – | – | – | IC50 (ITK kinase domain; Table 3, naphthyl analog): 0.007 µM; IC50 (BTK kinase domain; Table 3, naphthyl analog): 0.00215 µM |
| CN(C)C1CCN(CCC(=O)c2ccc3ccccc3c2)CC1 [drawing 177] | – | – | – | IC50 (ITK kinase domain; Table 3, naphthyl analog): 0.009 µM; IC50 (BTK kinase domain; Table 3, naphthyl analog): 0.00654 µM |
| CC(C)N(CCC(=O)c1ccc2ccccc2c1)C(C)C [drawing 179] | – | – | – | IC50 (ITK kinase domain; Table 3, naphthyl analog): 0.009 µM; IC50 (BTK kinase domain; Table 3, naphthyl analog): 0.00072 µM |
| O=C(CCN1CCOCC1)c1ccc2ccccc2c1 [drawing 185] | – | – | – | IC50 (ITK kinase domain; Table 4): 0.02 µM; IC50 (BTK kinase domain; Table 4): 0.039 µM |
| O=C(CCN1CCOCC1)c1cc2ccccc2cn1 [drawing 187] | – | – | – | IC50 (ITK kinase domain; Table 4): 1.68 µM; IC50 BTK (BTK kinase domain; Table 4): no IC50 |
| O=C(CCN1CCOCC1)c1ccc2occc2c1 [drawing 192] | – | – | – | IC50 (ITK kinase domain; Table 4): 0.075 µM; IC50 (BTK kinase domain; Table 4): 2.04 µM |
| NC(=O)c1ccc2cc(C(=O)CCN3CCOCC3)ccc2c1 [drawing 198] | – | – | – | IC50 (ITK kinase domain; Table 4): 0.005 µM; IC50 (BTK kinase domain; Table 4): 0.001 µM |
| O=C(CCN1CCOCC1)c1ccc2ccccc2c1 [drawing 200] | – | – | – | IC50 (ITK kinase domain; Table 5): 0.0205 µM; IC50 (BTK kinase domain; Table 5): 0.0395 µM |
| O=C(CCN1CCCC1)c1ccc2ccccc2c1 [drawing 201] | – | – | – | IC50 (ITK kinase domain; Table 5): 0.137 µM; IC50 (BTK kinase domain; Table 5): 8.22 µM |
| O=C(CCN1CCC(Cc2ccccc2)CC1)c1ccc2ccccc2c1 [drawing 204] | – | – | – | IC50 (ITK kinase domain; Table 5): 0.0602 µM; IC50 (BTK kinase domain; Table 5): 0.128 µM |
| COc1cc2c(cc1OC)CN(CCC(=O)c1ccc3ccccc3c1)CC2 [drawing 212] | – | – | – | IC50 (ITK kinase domain; Table 5): 0.0072 µM; IC50 (BTK kinase domain; Table 5): 0.115 µM |
| CN(C)C1CCN(CCC(=O)c2ccc3ccccc3c2)C1 (stereo not shown) [drawing 214] | – | – | – | IC50 (ITK kinase domain; Table 5): 0.0069 µM; IC50 (BTK kinase domain; Table 5): 0.0492 µM |
